From US4237116A, “Combination of thiopeptin and rumensin to improve ruminant feed efficiency” (Merck & Co., Inc., priority 1979, dated 1980)

System: ruminants (cattle)
Experiment: Propionate content of rumen fluid in cattle given medicated feed (high roughage diet, then shifted to high grain diet)
Assay type: in vivo
Method: The synergistic effect of the combination of thiopeptin and rumensin has been observed by administering the two compounds to ruminants on a controlled diet and taking periodic samples of rumen fluid. The amount of each of the volatile fatty acids present in the rumen fluid is measured and compared with that of animals taking no medication and also with animals given only one of the two compounds. This effect has been observed in ruminants on diets of both the high roughage and high grain types. […] Animals given the same diet but with 8.25 ppm of thiopeptin in the diet for 7 days had 25.87 mole % of propionate. Animals given 16.5 ppm of rumensin for 7 days had 25.81 mole % of propionate. […] In the same test, the animal's feed was then shifted to a high grain diet and after 2 days rumen samples again taken. The control animals had 21.73 mole % of propionate. The thiopeptin treated animals (at the same dose as the first test) had 27.31 mole % propionate. The rumensin treated animals (again at the same dose as previously) had 25.95 mole % of propionate.

[1] = high roughage diet, drug in the diet for 7 days, thiopeptin 8.25 ppm, rumensin 16.5 ppm, combination 8.25 ppm + 16.5 ppm, control animals 24.16 mole %
[2] = same test after shift to high grain diet, rumen samples after 2 days, same doses (thiopeptin 8.25 ppm, rumensin 16.5 ppm, combination of both), control animals 21.73 mole %

Row | Molecule | propionate in the rumen fluid [1] | propionate in the rumen fluid [2]
1 | CC[C@@]1([C@H]2O[C@H]([C@H]3O[C@@](O)(CO)[C@H](C)C[C@@H]3C)C[C@H]2C)CC[C@H]([C@@]2(C)CC[C@]3(C[C@H](O)[C@@H](C)[C@@H]([C@H](C)[C@H](OC)[C@@H](C)C(=O)[O-])O3)O2)O1.[Na+] [rumensin, Rumensin] | 25.81 mole % | 25.95 mole %
2 | Thiopeptin | 25.87 mole % | 27.31 mole %
